# Test results as given in patent publication US5354864A, “3-(9-acridinylamino)-5-hydroxymethylaniline derivatives as anticancer agents” (Sloan-Kettering Institute for Cancer Research, priority 1992, dated 1994).
# Like-named read-outs stand apart in the source and are kept apart here.
# Key:
# [1] = Lethal doses to BDF^1 mice; assay type: in vivo; conditions: i.p.
# Text: ^b Lethal Doses of these compounds to BDF^1 mice have been
# [2] = test system: mouse leukemia L1210 cells; experiment: In vitro cytotoxicity, growth inhibition of mouse leukemia L1210 cells; assay type: cell-based
# L1210 tumor = experiment: Chemotherapeutic effects on L1210 tumor bearing BDF^1 mice; assay type: in vivo, mouse; conditions: day 1, QD × 4 + Day 7, QD × 2; for % Increase in lifespan: 25% or greater indicates therapeutic activity; for Average survival time: control 7.2 days
# Text: Table 2 lists typical examples of chemotherapeutic effects of 3-(9-acridinylamino)-5-hydroxymethylaniline derivatives of formula I on L1210 tumor bearing BDF^1 mice in vivo.
# ^a Female mice, 19-21 grams, inoculated with 10^6 L1210 cells i.p
# treatment schedule was day 1, QD × 4 + Day 7, QD × 2, i.p.
# [3] = test system: human leukemia HL-60 cells; experiment: In vitro cytotoxicity, growth inhibition of human leukemia HL-60 cells; assay type: cell-based
# [4] = 37° C.; cited from earlier work
# DNA [5] = conditions: Wilson et al. 1984; cited from earlier work
# L1210 leukemia = conditions: Cain et al., J. Med. Chem. 1975; cited from earlier work
# topoisomerase II = conditions: Nelson et al. 1984; Pommier et al. 1985; cited from earlier work
# solid tumors = conditions: Casper et al. 1980; cited from earlier work
# DNA [6] = conditions: Nelson et al. 1984; Pommier et al. 1985; cited from earlier work
# experimental tumors = conditions: Corbett et al. 1977; Goldin et al. 1981; cited from earlier work
# [7] = mouse leukemia L1210, read-out: IC50 for Cell growth Inhibition, L1210
# [8] = human leukemia HL-60, read-out: IC50 for Cell growth Inhibition, HL60
Structure (SMILES),"Lethal dose to BDF^1 mice ([1]; QD Day 1-Day 4, Day 7-Day 8) [mg/kg]","IC50 [2, 7] [µM]",% Increase in lifespan (L1210 tumor; 5 mg/kg i.p.) [%],"Average weight change, Day 7 (L1210 tumor; 5 mg/kg i.p.)",Average survival time (L1210 tumor; 5 mg/kg i.p.) [days],% Increase in lifespan (L1210 tumor; 10 mg/kg i.p.) [%],"Average weight change, Day 7 (L1210 tumor; 10 mg/kg i.p.)",Average survival time (L1210 tumor; 10 mg/kg i.p.) [days],% Increase in lifespan (L1210 tumor; 20 mg/kg i.p.) [%],"Average weight change, Day 7 (L1210 tumor; 20 mg/kg i.p.) [grams]","Average weight change, Day 11 (L1210 tumor; 20 mg/kg i.p.) [grams]",Average survival time (L1210 tumor; 20 mg/kg i.p.) [days],"IC50 [3, 8] [µM]",further results
"CC(=O)CCC(=O)Nc1cc(CO)cc(Nc2c3ccccc3nc3ccccc23)c1 [Ic, 3-(9-acridinylamino)-5-hydroxymethyl-N-acetonylacetylaniline]",50,0.073,53,+2.0 grams,11.0,25,+1.5 grams,9.0,192,-1.5,-2.0,21.0,0.005,–
"COc1cc(NS(C)(=O)=O)ccc1Nc1c2ccccc2nc2ccccc12 [m-AMSA, 4'-(9-acridinylamino)methanesulfon-m-anisidide]",–,–,–,–,–,–,–,–,–,–,–,–,–,"half life in the presence of fresh mouse blood [4]: about 23 minutes; chromosomal aberrations and DNA damage (DNA [5]): induced chromosomal aberrations and DNA damage; activity against the L1210 leukemia (L1210 leukemia): high activity; IC50 ([2]; Mus musculus, L1210, read-out: IC50 for Cell growth Inhibition, L1210): 0.004 µM; topoisomerase II inhibition (topoisomerase II): topoisomerase II inhibitor; activity against a number of solid tumors during Phase II trials (solid tumors): inactive; IC50 ([3]; Homo sapiens, HL-60, read-out: IC50 for Cell growth Inhibition, HL60): 0.08 µM; DNA intercalation (DNA [6]): DNA intercalator; activity against a spectrum of experimental tumors (experimental tumors): high activity"
"O=C(O)CCC(=O)Nc1cc(COC(=O)CCC(=O)O)cc(Nc2c3ccccc3nc3ccccc23)c1 [Id, 3-(9-acridinylamino)-5-succinyloxymethyl-N-succinylaniline]",–,2,–,–,–,–,–,–,–,–,–,–,0.859,–
"O=C(O)CCC(=O)Nc1cc(CO)cc(Nc2c3ccccc3nc3ccccc23)c1 [Ie, 3-(9-acridinylamino)-5-hydroxymethyl-N-succinylaniline]",–,1.07,–,–,–,–,–,–,–,–,–,–,0.999,–
"CC(=O)CCC(=O)Nc1cc(COC(=O)CCC(C)=O)cc(Nc2c3ccccc3nc3ccccc23)c1 [Ib, 3-(9-acridinylamino)-N,O-bis(acetonylacetyl)-5-hydroxymethylaniline]",50,0.098,25,+2.0 grams,9.0,53,+2.0 grams,11.0,94,-3.0,-4.0,14.0,0.003,–
"Nc1cc(CO)cc(Nc2c3ccccc3nc3ccccc23)c1 [Ia, 3-(9-acridinylamino)-5-hydroxymethylaniline]",–,0.026,94,+1.0 grams,14.0,108,-0.5 grams,15.0,–,–,–,–,0.097,"Lethal dose to BDF^1 mice ([1]; QD Day 1-Day 4 + Day 7): 20 mg/kg; Average weight change, Day 11 (L1210 tumor; 5 mg/kg i.p.): +2.0 grams; Average weight change, Day 11 (L1210 tumor; 10 mg/kg i.p.): +0.0 grams"
